Here are results for 25 molecules from patent publication US11702404B2, “GLP-1R modulating compounds” (priority 2019, dated 2023).

One data set concerns the target GLP-1R (Homo sapiens, UniProt P43220). As to the kind of experiment: GLP-1R activation: cAMP increase in CHO cells stably expressing GLP-1R. Type of data set: cell-based.
A short description of data set [1]: Microsomal stability, human liver microsomes (predicted hepatic clearance). Conditions: predicted from in vitro microsomal stability data.
Setting [2] is: cAMP increase, CHO cells stably expressing GLP-1R, 10 point dose response, 30 minutes incubation, read-out: EC50.

Where two headings read alike, the source gives them in different places.

GLP-1R, sequence (P43220 24-463): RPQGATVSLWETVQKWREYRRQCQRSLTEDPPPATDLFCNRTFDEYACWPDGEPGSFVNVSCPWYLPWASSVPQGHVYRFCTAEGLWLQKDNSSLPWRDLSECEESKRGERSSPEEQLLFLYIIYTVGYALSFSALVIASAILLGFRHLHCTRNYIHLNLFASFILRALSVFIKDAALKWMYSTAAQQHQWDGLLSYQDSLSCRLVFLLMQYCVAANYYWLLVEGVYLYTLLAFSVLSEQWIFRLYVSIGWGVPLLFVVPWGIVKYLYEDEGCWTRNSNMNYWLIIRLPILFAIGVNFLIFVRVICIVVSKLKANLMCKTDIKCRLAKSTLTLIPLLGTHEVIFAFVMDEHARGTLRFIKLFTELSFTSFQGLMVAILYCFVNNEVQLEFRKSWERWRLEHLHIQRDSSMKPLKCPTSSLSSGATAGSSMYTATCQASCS

As a reminder, the EC50 is the concentration giving half of the maximal effect. On to `N#Cc1cc(F)c(COc2ncc(F)c(-c3cc(F)c(Cc4nc5ccc(C(=O)O)cc5n4C[C@@H]4CCO4)cc3F)n2)cc1F` [Example 878], for which, on GLP-1R (setting [2]), the EC50 turned out to be 0.78 nM. The “Predicted Hepatic Clearance (Pred. Cl.)” value in data set [1] was 0.53 L/h/kg.

As to `CC(C)n1c(Cc2ccc(-c3cccc(OCc4ccc(C#N)cc4F)n3)cc2F)nc2ccc(C(=O)O)cc21` [Example 347, 2-(4-(6-((4-cyano-2-fluorobenzyl)oxy)pyridin-2-yl)-2-fluorobenzyl)-1-isopropyl-1H-benzo[d]imidazole-6-carboxylic acid], at GLP-1R (setting [2]), the EC50 was 92.6 nM. The “Predicted Hepatic Clearance (Pred. Cl.)” value in data set [1] is 0.33 L/h/kg.

Take `COCCn1c(Cc2ccc(-c3cccc(OCc4cccc(COC)c4)n3)cc2F)nc2ccc(C(=O)O)cc21` [Example 509, 2-(2-fluoro-4-(6-((3-(methoxymethyl)benzyl)oxy)pyridin-2-yl)benzyl)-1-(2-methoxyethyl)-1H-benzo[d]imidazole-6-carboxylic acid]: at GLP-1R (setting [2]), the EC50 worked out at 102 nM. Besides, the “Predicted Hepatic Clearance (Pred. Cl.)” value in data set [1] was 0.7 L/h/kg.

Turning to `N#Cc1ccc(COc2cccc(-c3ccc(Cc4nc5c(F)cc(C(=O)O)cc5n4Cc4ccon4)c(F)c3)n2)c(F)c1` [Example 585, 2-(4-(6-((4-cyano-2-fluorobenzyl)oxy)pyridin-2-yl)-2-fluorobenzyl)-4-fluoro-1-(isoxazol-3-ylmethyl)-1H-benzo[d]imidazole-6-carboxylic acid], the EC50 on GLP-1R (setting [2]) is 0.81 nM. Also, the “Predicted Hepatic Clearance (Pred. Cl.)” value in data set [1] is on record as 0.14 L/h/kg.

Consider `N#CCC1(Cn2c(Cc3cc(F)c(-c4ccnc(OCc5ccc(C#N)cc5F)n4)cc3F)nc3ccc(C(=O)O)nc32)CC1` [Example 400, 2-(4-(2-((4-cyano-2-fluorobenzyl)oxy)pyrimidin-4-yl)-2,5-difluorobenzyl)-3-((1-(cyanomethyl)cyclopropyl)methyl)-3H-imidazo[4,5-b]pyridine-5-carboxylic acid], for which the EC50 on GLP-1R (setting [2]) was 0.47 nM. Besides, the “Predicted Hepatic Clearance (Pred. Cl.)” value in data set [1] is below 0.11 L/h/kg.

For `COCCn1c(Cc2ccc(-c3cccc(OCc4cccc5scnc45)n3)cc2F)nc2ccc(C(=O)O)cc21` [Example 146, 2-(4-(6-(benzo[d]thiazol-4-ylmethoxy)pyridin-2-yl)-2-fluorobenzyl)-1-(2-methoxyethyl)-1H-benzo[d]imidazole-6-carboxylic acid], the EC50 at GLP-1R (setting [2]) is 36.4 nM. Also, the “Predicted Hepatic Clearance (Pred. Cl.)” value in data set [1] is on record as 0.44 L/h/kg.

In the case of `COCCn1c(Cc2cc(F)c(-c3cccc(OCc4cc(Cl)ccc4F)n3)cc2F)nc2ccc(C(=O)O)cc21` [Example 660], the EC50 at GLP-1R (setting [2]) is 50.5 nM. Moreover, the “Predicted Hepatic Clearance (Pred. Cl.)” value in data set [1] is 0.25 L/h/kg.

In the case of `N#Cc1ccc(COc2cccc(-c3cc(F)c(Cc4nc5ccc(C(=O)O)cc5n4CCOC4CCC4)cc3F)n2)c(F)c1` [Example 628], the EC50 at GLP-1R (setting [2]) was 13.4 nM. Moreover, in data set [1], the “Predicted Hepatic Clearance (Pred. Cl.)” value was 0.19 L/h/kg.

As to `N#Cc1ccc(COc2cccc(-c3ccc(Cc4nc5ccc(C(=O)O)cc5n4C[C@@H]4CCOC4)c(F)c3)n2)c(F)c1` [Example 197, (S)-2-(4-(6-((4-cyano-2-fluorobenzyl)oxy)pyridin-2-yl)-2-fluorobenzyl)-1-((tetrahydrofuran-3-yl)methyl)-1H-benzo[d]imidazole-carboxylic acid], the EC50 at GLP-1R (setting [2]) worked out at 7.77 nM. In data set [1], the “Predicted Hepatic Clearance (Pred. Cl.)” value is listed as 0.36 L/h/kg.

For the molecule `COCCn1c(Cc2c(F)cc(-c3cccnc3OCc3ccccc3F)cc2F)nc2ccc(C(=O)O)cc21` [Example 192, 2-(2,6-difluoro-4-(2-((2-fluorobenzyl)oxy)pyridin-3-yl)benzyl)-1-(2-methoxyethyl)-1H-benzo[d]imidazole-carboxylic acid], the EC50 at GLP-1R (setting [2]) was 437 nM. Moreover, in data set [1], the “Predicted Hepatic Clearance (Pred. Cl.)” value was 0.78 L/h/kg.

`O=C(O)c1cc(F)c2nc(Cc3ccc(-c4ccc(F)c(OCc5ccc(C(F)F)cc5F)n4)cc3F)n(C[C@@H]3CCO3)c2c1` [Example 774]: the EC50 on GLP-1R (setting [2]) came to 0.06 nM. Besides, the “Predicted Hepatic Clearance (Pred. Cl.)” value in data set [1] is 0.125 L/h/kg.

Regarding `COCCn1c(Cc2ccc(-c3cccc(OCc4cc(F)c(C#N)cc4F)n3)cc2F)nc2ccc(C(=O)O)cc21` [Example 262, 2-(4-(6-((4-cyano-2,5-difluorobenzyl)oxy)pyridin-2-yl)-2-fluorobenzyl)-1-(2-methoxyethyl)-1H-benzo[d]imidazole-6-carboxylic acid], the EC50 at GLP-1R (setting [2]) amounted to 28.6 nM. The “Predicted Hepatic Clearance (Pred. Cl.)” value in data set [1] is given as below 0.11 L/h/kg.

Take `COCCn1c(Cc2ccc(-c3cccc(OCc4ccc(C#N)cc4F)n3)c(C)c2)nc2ccc(C(=O)NS(=O)(=O)C3CC3)cc21` [Example 53, 2-(4-(6-((4-cyano-2-fluorobenzyl)oxy)pyridin-2-yl)-3-methylbenzyl)-N-(cyclopropylsulfonyl)-1-(2-methoxyethyl)-1H-benzo[d]imidazole-6-carboxamide]: the EC50 on GLP-1R (setting [2]) worked out at 1010 nM. In addition, in data set [1], the “Predicted Hepatic Clearance (Pred. Cl.)” value is on record as 0.54 L/h/kg.

For `CCc1cnccc1Cn1c(Cc2ccc(-c3cccc(OCc4ccc(C#N)cc4F)n3)c(F)c2)nc2ccc(C(=O)O)cc21` [Example 534, 2-(4-(6-((4-cyano-2-fluorobenzyl)oxy)pyridin-2-yl)-3-fluorobenzyl)-1-((3-ethylpyridin-4-yl)methyl)-1H-benzo[d]imidazole-6-carboxylic acid], the EC50 on GLP-1R (setting [2]) was 49.9 nM. Also, the “Predicted Hepatic Clearance (Pred. Cl.)” value in data set [1] was 0.91 L/h/kg.

Regarding `COCCn1c(Cc2ccc(-c3cccc(OCc4ccc(CC#N)cc4)n3)cc2F)nc2ccc(C(=O)O)cc21` [Example 229, 2-(4-(6-((4-(cyanomethyl)benzyl)oxy)pyridin-2-yl)-2-fluorobenzyl)-1-(2-methoxyethyl)-1H-benzo[d]imidazole-6-carboxylic acid], at GLP-1R (setting [2]), the concentration for a half-maximal effect (EC50) stood at 35.4 nM. Besides, the “Predicted Hepatic Clearance (Pred. Cl.)” value in data set [1] is reported as 0.52 L/h/kg.

In the case of `CC(=O)N1CCC[C@H]1Cn1c(Cc2ccc(-c3cccc(OCc4ccc(C#N)cc4F)n3)cc2F)nc2ccc(C(=O)O)cc21` [Example 453, (S)-1-((1-acetylpyrrolidin-2-yl)methyl)-2-(4-(6-((4-cyano-2-fluorobenzyl)oxy)pyridin-2-yl)-2-fluorobenzyl)-1H-benzo[d]imidazole-6-carboxylic acid], at GLP-1R (read-out: EC50), the EC50 worked out at 40.3 nM. In data set [1], the “Predicted Hepatic Clearance (Pred. Cl.)” value was 0.23 L/h/kg.

Regarding `NC(=O)c1ccc(COc2cccc(-c3cc(F)c(Cc4nc5ccc(C(=O)O)cc5n4C[C@@H]4CCO4)cc3F)n2)c(OC(F)F)n1` [Example 857, (S)-2-(4-(6-((6-carbamoyl-2-(difluoromethoxy)pyridin-3-yl)methoxy)pyridin-2-yl)-2,5-difluorobenzyl)-1-(oxetan-2-ylmethyl)-1H-benzo[d]imidazole-6-carboxylic acid], the EC50 on GLP-1R (setting [2]) was 0.35 nM. Also, the “Predicted Hepatic Clearance (Pred. Cl.)” value in data set [1] was 0.19 L/h/kg.

In turn, `COCCn1c(Cc2ccc(-c3cccc(OCc4ccc(C#N)cc4F)n3)c(F)c2)nc2ccc(C(=O)O)cc21` [Example 3, 2-(4-(6-((4-cyano-2-fluorobenzyl)oxy)pyridin-2-yl)-3-fluorobenzyl)-1-(2-methoxyethyl)-1H-benzo[d]imidazole-6-carboxylic acid] showed an EC50 on GLP-1R (EC50 (nM)) of 10.3 nM. The “Predicted Hepatic Clearance (Pred. Cl.)” value in data set [1] is 0.23 L/h/kg.

In the case of `C[C@H](C1CC1)n1c(Cc2ccc(-c3cccc(OCc4ccc(C#N)cc4F)n3)cc2F)nc2ccc(C(=O)O)cc21` [Example 222, (R)-2-(4-(6-((4-cyano-2-fluorobenzyl)oxy)pyridin-2-yl)-2-fluorobenzyl)-1-(1-cyclopropylethyl)-1H-benzo[d]imidazole-6-carboxylic acid], on GLP-1R (setting [2]), the 50% effective concentration (EC50) was 6.79 nM. Further, the “Predicted Hepatic Clearance (Pred. Cl.)” value in data set [1] was 0.3 L/h/kg.

With `COCCn1c(Cc2ccc(-c3cccc(OCc4cnc(Cl)s4)n3)cc2F)nc2ccc(C(=O)O)cc21` [Example 593, 2-(4-(6-((2-chlorothiazol-5-yl)methoxy)pyridin-2-yl)-2-fluorobenzyl)-1-(2-methoxyethyl)-1H-benzo[d]imidazole-6-carboxylic acid], at GLP-1R (setting [2]), the EC50 turned out to be 145 nM. The “Predicted Hepatic Clearance (Pred. Cl.)” value in data set [1] is 0.5 L/h/kg.

As to `COCCn1c(Cc2ccc(-c3cccc(OCc4cc(F)c(Cl)cc4OC)n3)cc2F)nc2ccc(C(=O)O)cc21` [Example 481, 2-(4-(6-((4-chloro-5-fluoro-2-methoxybenzyl)oxy)pyridin-2-yl)-2-fluorobenzyl)-1-(2-methoxyethyl)-1H-benzo[d]imidazole-6-carboxylic acid], the half-maximal effective concentration (EC50) on GLP-1R (setting [2]) was 2.9 nM. Besides, in data set [1], the “Predicted Hepatic Clearance (Pred. Cl.)” value is listed as below 0.11 L/h/kg.

For the molecule `COCCn1c(Cc2c(F)cc(-c3ccnc(OCc4ccc(C#N)cc4F)n3)cc2F)nc2ccc(C(=O)O)cc21` [Example 378, 2-(4-(2-((4-cyano-2-fluorobenzyl)oxy)pyrimidin-4-yl)-2,6-difluorobenzyl)-1-(2-methoxyethyl)-1H-benzo[d]imidazole-6-carboxylic acid], the EC50 on GLP-1R (setting [2]) was determined as 12.4 nM. Further, in data set [1], the “Predicted Hepatic Clearance (Pred. Cl.)” value is recorded as 0.33 L/h/kg.

As to `N#Cc1ccc(COc2cccc(-c3ccc(Cc4nc5ccc(C(=O)O)cc5n4Cc4cncn4C4CC4)c(F)c3)n2)c(F)c1` [Example 7, 2-(4-(6-((4-cyano-2-fluorobenzyl)oxy)pyridin-2-yl)-2-fluorobenzyl)-1-((1-cyclopropyl-1H-imidazol-5-yl)methyl)-1H-benzo[d]imidazole-6-carboxylic acid], the EC50 at GLP-1R (setting [2]) came out at 6.34 nM. The “Predicted Hepatic Clearance (Pred. Cl.)” value in data set [1] is 0.31 L/h/kg.

As to `N#Cc1ccc(COc2cccc(-c3ccc(Cc4nc5ccc(C(=O)O)cc5n4CC4(CO)COC4)c(F)c3)n2)c(F)c1` [Example 326, 2-(4-(6-((4-cyano-2-fluorobenzyl)oxy)pyridin-2-yl)-2-fluorobenzyl)-1-((3-(hydroxymethyl)oxetan-3-yl)methyl)-1H-benzo[d]imidazole-6-carboxylic acid], on GLP-1R (setting [2]), the 50% effective concentration (EC50) stood at 6.81 nM. In addition, in data set [1], the “Predicted Hepatic Clearance (Pred. Cl.)” value was 0.74 L/h/kg.

Take `O=C(O)c1ccc2nc(Cc3cc(F)c(-c4cccc(OCc5ccc(C(F)F)cc5F)n4)cc3F)n(CC34CC(CO3)C4)c2c1` [Example 670]: the EC50 at GLP-1R (setting [2]) amounted to 0.51 nM. Also, the “Predicted Hepatic Clearance (Pred. Cl.)” value in data set [1] was 0.19 L/h/kg.
